The term IC50 denotes the concentration that gives 50% inhibition. The low end stands for greater potency, the high end for weaker potency.

Bounds are passed on as bounds.

The nature of this assay: Inhibitory concentration required against protein phosphatase 1 using pNPP assay.

Compound `COC(=O)[C@@H](CCC(=O)N(C)C)NC(=O)[C@@H](C)[C@H](/C=C/C(C)=C/[C@H](C)[C@H](Cc1ccccc1)OC)NC(C)=O` [(R)-2-((4E,6E)-(2S,3S,8S,9S)-3-Acetylamino-9-methoxy-2,6,8-trimethyl-10-phenyl-deca-4,6-dienoylamino)-4-dimethylcarbamoyl-butyric acid methyl ester] yielded an IC50 of more than 100 µM. Then `CO[C@@H](Cc1ccccc1)[C@@H](C)/C=C(C)/C=C/[C@H](NC(C)=O)[C@H](C)C(=O)N[C@H](CCC(=O)N(C)C)C(=O)O` [(R)-2-((4E,6E)-(2S,3S,8S,9S)-3-Acetylamino-9-methoxy-2,6,8-trimethyl-10-phenyl-deca-4,6-dienoylamino)-4-dimethylcarbamoyl-butyric acid], with more than 100 µM; and `CO[C@@H](Cc1ccccc1)[C@@H](C)/C=C(C)/C=C/[C@H](NC(C)=O)[C@H](C)C(=O)N[C@H](CCC(=O)N(C)CC(=O)N[C@H](C)C(=O)O)C(=O)O` [(R)-2-((4E,6E)-(2S,3S,8S,9S)-3-Acetylamino-9-methoxy-2,6,8-trimethyl-10-phenyl-deca-4,6-dienoylamino)-4-{[((R)-1-carboxy-ethylcarbamoyl)-methyl]-methyl-carbamoyl}-butyric acid], with 400 µM. Then `CO[C@@H](Cc1ccccc1)[C@@H](C)/C=C(C)/C=C/[C@H](NC(C)=O)[C@H](C)C(=O)N[C@H](CCC(=O)N(C)CC(=O)N[C@H](C)C(=O)N[C@@H](CC(C)C)C(=O)O)C(=O)O` [(S)-2-[(R)-2-(2-{[(R)-4-((4E,6E)-(2S,3S,8S,9S)-3-Acetylamino-9-methoxy-2,6,8-trimethyl-10-phenyl-deca-4,6-dienoylamino)-4-carboxy-butyryl]-methyl-amino}-acetylamino)-1-oxo-propylamino]-4-methyl-pentanoic acid], with 230 µM; and `C=C(C(=O)N[C@H](C)C(=O)N[C@@H](CC(C)C)C(=O)O)N(C)C(=O)CC[C@@H](NC(=O)[C@@H](C)[C@H](/C=C/C(C)=C/[C@H](C)[C@H](Cc1ccccc1)OC)NC(C)=O)C(=O)O` [(S)-2-[(R)-2-(2-{[(R)-4-((4E,6E)-(2S,3S,8S,9S)-3-Acetylamino-9-methoxy-2,6,8-trimethyl-10-phenyl-deca-4,6-dienoylamino)-4-carboxy-butyryl]-methyl-amino}-acryloylamino)-1-oxo-propylamino]-4-methyl-pentanoic acid], with 75 µM.

These data come from BindingDB's records for doi:10.1016/s0960-894x(03)00589-4 (University of California Irvine, 2003).
